Test [1] has as its target T1, Amine oxidase [flavin-containing] A (Homo sapiens, UniProt P21397).
T1 sequence (P21397 whole entry): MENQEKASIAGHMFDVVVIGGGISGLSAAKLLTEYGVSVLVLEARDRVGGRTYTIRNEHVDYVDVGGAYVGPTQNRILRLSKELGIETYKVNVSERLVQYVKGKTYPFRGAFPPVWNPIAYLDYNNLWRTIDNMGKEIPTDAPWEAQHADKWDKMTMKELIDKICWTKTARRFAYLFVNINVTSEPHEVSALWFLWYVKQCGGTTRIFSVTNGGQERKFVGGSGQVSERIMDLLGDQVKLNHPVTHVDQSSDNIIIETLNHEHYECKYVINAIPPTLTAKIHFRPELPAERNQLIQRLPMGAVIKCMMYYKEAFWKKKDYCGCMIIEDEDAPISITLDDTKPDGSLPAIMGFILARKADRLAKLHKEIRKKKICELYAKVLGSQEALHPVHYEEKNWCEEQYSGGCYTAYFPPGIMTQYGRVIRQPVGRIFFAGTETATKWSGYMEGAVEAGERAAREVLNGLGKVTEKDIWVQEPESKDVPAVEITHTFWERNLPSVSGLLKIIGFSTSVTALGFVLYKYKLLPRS
It is filed as functional.

A further test has as its target D(3) dopamine receptor (Homo sapiens, UniProt P35462).
Test [2] concerns the target Sodium-dependent noradrenaline transporter (Homo sapiens, UniProt P23975).
The target in test [3] is T2, Muscarinic acetylcholine receptor M1 (Homo sapiens, UniProt P11229).
T2 sequence (P11229 whole entry): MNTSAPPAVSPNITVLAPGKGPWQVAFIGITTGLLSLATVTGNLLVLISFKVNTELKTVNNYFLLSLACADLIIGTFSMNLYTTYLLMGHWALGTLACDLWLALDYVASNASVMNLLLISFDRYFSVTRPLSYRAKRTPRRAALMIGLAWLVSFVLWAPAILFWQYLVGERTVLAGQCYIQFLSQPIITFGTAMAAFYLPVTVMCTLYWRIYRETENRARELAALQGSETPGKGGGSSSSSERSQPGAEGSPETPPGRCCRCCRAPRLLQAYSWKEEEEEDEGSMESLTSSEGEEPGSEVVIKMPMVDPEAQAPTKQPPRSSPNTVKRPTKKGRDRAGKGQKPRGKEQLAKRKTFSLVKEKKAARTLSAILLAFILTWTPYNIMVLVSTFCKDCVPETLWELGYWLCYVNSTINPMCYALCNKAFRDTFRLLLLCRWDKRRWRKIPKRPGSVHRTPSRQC
It is filed as functional, cell-based.

For another test, the target named is T3, Estrogen receptor (Homo sapiens, UniProt P03372).
T3 sequence (P03372 whole entry): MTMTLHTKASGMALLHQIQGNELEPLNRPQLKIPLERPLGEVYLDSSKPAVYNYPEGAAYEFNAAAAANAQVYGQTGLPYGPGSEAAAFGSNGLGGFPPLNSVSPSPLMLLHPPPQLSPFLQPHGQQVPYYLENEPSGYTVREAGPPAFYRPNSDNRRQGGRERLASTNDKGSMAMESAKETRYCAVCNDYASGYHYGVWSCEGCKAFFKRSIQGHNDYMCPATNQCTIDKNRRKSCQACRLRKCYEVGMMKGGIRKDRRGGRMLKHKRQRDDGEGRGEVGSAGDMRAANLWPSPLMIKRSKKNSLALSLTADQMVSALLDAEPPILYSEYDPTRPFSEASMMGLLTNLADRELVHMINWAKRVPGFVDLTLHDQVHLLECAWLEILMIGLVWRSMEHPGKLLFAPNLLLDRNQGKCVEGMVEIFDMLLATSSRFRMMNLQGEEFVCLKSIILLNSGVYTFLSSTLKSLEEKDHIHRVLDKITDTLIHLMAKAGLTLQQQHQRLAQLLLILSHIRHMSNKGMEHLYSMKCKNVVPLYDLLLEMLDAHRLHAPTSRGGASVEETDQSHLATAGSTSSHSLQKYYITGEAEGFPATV

In another test the target is T4, Adenosine receptor A3 (Homo sapiens, UniProt P0DMS8).
T4 sequence (P0DMS8 whole entry): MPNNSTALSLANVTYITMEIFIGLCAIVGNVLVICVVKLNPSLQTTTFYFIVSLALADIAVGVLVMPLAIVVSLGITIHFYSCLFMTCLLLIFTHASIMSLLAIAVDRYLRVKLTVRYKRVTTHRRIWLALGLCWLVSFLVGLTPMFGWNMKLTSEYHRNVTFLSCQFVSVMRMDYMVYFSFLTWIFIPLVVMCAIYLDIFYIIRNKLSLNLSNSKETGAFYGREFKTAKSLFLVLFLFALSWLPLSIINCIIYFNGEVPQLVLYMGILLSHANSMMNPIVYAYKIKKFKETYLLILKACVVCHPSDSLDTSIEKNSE

The target in a further test is T5, B2 bradykinin receptor (Homo sapiens, UniProt P30411).
T5 sequence (P30411 whole entry): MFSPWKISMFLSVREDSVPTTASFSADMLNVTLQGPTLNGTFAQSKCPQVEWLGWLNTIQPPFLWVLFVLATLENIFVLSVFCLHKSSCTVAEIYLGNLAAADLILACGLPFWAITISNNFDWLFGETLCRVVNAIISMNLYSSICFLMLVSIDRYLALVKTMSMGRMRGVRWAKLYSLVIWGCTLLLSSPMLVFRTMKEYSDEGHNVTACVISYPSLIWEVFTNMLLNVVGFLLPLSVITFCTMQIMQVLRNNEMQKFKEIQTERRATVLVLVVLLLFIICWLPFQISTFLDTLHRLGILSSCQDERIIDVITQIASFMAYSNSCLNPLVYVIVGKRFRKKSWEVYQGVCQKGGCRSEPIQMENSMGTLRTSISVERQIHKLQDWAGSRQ
Further: assay procedure not described here.

Chain of D(3) dopamine receptor (P35462 whole entry): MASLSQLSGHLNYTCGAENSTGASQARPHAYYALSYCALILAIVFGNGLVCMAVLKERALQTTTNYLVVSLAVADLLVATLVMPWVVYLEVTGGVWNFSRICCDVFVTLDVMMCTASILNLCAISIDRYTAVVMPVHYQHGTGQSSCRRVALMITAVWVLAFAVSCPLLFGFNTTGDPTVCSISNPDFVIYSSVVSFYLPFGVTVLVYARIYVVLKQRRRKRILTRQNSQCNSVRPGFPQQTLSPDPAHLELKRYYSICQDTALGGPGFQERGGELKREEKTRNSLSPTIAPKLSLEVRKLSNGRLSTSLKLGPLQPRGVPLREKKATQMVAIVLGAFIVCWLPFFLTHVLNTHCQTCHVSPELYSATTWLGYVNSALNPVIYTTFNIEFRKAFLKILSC
Chain of Sodium-dependent noradrenaline transporter (P23975 whole entry): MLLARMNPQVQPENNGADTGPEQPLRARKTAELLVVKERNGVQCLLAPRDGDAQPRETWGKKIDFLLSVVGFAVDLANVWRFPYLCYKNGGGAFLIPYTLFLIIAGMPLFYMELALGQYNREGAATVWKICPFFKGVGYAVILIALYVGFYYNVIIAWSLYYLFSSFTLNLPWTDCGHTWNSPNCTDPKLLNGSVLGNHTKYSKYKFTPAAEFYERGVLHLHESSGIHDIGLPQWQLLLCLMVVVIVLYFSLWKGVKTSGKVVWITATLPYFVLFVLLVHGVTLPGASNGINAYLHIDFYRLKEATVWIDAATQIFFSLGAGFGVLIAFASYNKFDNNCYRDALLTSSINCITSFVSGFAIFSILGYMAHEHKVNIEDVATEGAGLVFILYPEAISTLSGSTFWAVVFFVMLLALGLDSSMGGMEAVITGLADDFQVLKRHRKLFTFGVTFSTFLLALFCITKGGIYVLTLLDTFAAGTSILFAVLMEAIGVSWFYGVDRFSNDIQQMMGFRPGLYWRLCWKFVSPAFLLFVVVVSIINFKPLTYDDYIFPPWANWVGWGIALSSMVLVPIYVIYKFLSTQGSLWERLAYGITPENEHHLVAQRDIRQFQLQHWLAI

For `OC[C@H]1NC[C@H](O)[C@@H](O)[C@H]1O`, the concentration at half-maximal activity (AC50) (in test [1]; on D(3) dopamine receptor; in test [2]; in test [3]; at Estrogen receptor; on Adenosine receptor A3) was more than 30 µM each time.

In the case of `CC#CC(=O)N1CCC[C@H]1c1nc(-c2ccc(C(=O)Nc3ccccn3)cc2)c2c(N)nccn12` [ACALABRUTINIB], the half-maximal activity concentration (AC50) (in test [1]; at D(3) dopamine receptor; in test [2]; in test [3]; on Estrogen receptor) was more than 30 µM throughout.

For the compound `C=CCOc1ccc(CC(=O)O)cc1Cl` [ALCLOFENAC], the AC50 (in test [1]; in test [2]; in test [3]; at Estrogen receptor; on Adenosine receptor A3) was more than 30 µM in each case.

Regarding `CC(=O)Oc1ccccc1C(=O)O` [ASPIRIN], the AC50 (on B2 bradykinin receptor; in test [1]; at D(3) dopamine receptor; in test [2]; at Estrogen receptor; on Adenosine receptor A3) was more than 30 µM throughout.

Regarding `CN1CCN(C(c2ccccc2)c2ccc(Cl)cc2)CC1` (stereo unspecified) [CHLORCYCLIZINE], the AC50 in test [1] was more than 30 µM; on D(3) dopamine receptor, 0.449 µM; in test [2], 21.2 µM; in test [3] it was 0.691 µM; on Estrogen receptor it was more than 30 µM; at Adenosine receptor A3 it was more than 30 µM.

Regarding `CCCCCCCCCCCCCCCC(=O)OC[C@H](COP(=O)([O-])OCC[N+](C)(C)C)OC(=O)CCCCCCCCCCCCCCC` [COLFOSCERIL PALMITATE], the AC50 (in test [1]; on D(3) dopamine receptor; in test [2]; in test [3]; on Estrogen receptor) was more than 30 µM in each case.

For the compound `CC(C)Nc1cccnc1N1CCN(C(=O)c2cc3cc(NS(C)(=O)=O)ccc3[nH]2)CC1` [DELAVIRDINE], the AC50 is 24 µM in test [1]; more than 30 µM at D(3) dopamine receptor; more than 30 µM in test [2]; 16.4 µM in test [3]; more than 30 µM on Estrogen receptor; 21.4 µM at Adenosine receptor A3.

Turning to `C[C@@H](CN1CC(=O)NC(=O)C1)N1CC(=O)NC(=O)C1` [DEXRAZOXANE], the AC50 (in test [1]; on D(3) dopamine receptor; in test [2]; in test [3]; on Estrogen receptor; at Adenosine receptor A3) was more than 30 µM each time.

Consider `C[C@]12CC[C@@H]3c4ccc(OC(=O)N(CCCl)CCCl)cc4CC[C@H]3[C@@H]1CC[C@@H]2OP(=O)(O)O` [ESTRAMUSTINE PHOSPHATE], for which the AC50 was more than 30 µM in test [1]; more than 30 µM at D(3) dopamine receptor; more than 30 µM in test [2]; more than 30 µM in test [3]; 2.03 µM on Estrogen receptor; 7.84 µM on Adenosine receptor A3.

`O=C(O)[C@H](O)[C@@H](O)[C@H](O)[C@H](O)CO` [GLUCONIC ACID]: the concentration at half-maximal activity (AC50) (in test [1]; at D(3) dopamine receptor; in test [2]; in test [3]; at Adenosine receptor A3) was more than 30 µM each time.

For the compound `N=C(N)NCC1COc2ccccc2O1` (stereo unspecified) [GUANOXAN], the half-maximal activity concentration (AC50) in test [1] was more than 30 µM; at D(3) dopamine receptor, 8.54 µM; in test [2], 5.56 µM; in test [3], more than 30 µM; at Estrogen receptor, more than 30 µM; at Adenosine receptor A3, more than 30 µM.

On to `N#Cc1ccnc(N2C(=O)CC[C@H]2C(=O)N(c2cncc(F)c2)[C@H](C(=O)NC2CC(F)(F)C2)c2ccccc2Cl)c1` [IVOSIDENIB], for which the half-maximal activity concentration (AC50) (in test [1]; at D(3) dopamine receptor; in test [2]; in test [3]; on Estrogen receptor; on Adenosine receptor A3) was more than 30 µM each time.

In the case of `CCCCCCO[C@@H](C)c1cccc(-c2csc(NC(=O)c3cc(Cl)c(/C=C(\C)C(=O)O)c(Cl)c3)n2)c1OC` [LUSUTROMBOPAG], the AC50 in test [1] is more than 30 µM; on D(3) dopamine receptor it was 8.41 µM; in test [2] it was more than 30 µM; in test [3], 16.2 µM; at Estrogen receptor it was 2.91 µM; at Adenosine receptor A3, 0.334 µM.

`CO[C@@]1(NC(=O)C(C(=O)O)c2ccc(O)cc2)C(=O)N2C(C(=O)O)=C(CSc3nnnn3C)CO[C@@H]21` (stereo partly specified) [MOXALACTAM]: the concentration at half-maximal activity (AC50) (in test [1]; at D(3) dopamine receptor; in test [2]; in test [3]; on Estrogen receptor) was more than 30 µM in each case.

As to `CCCCCCCC/C=C\CCCCCCCC(=O)O` [OLEIC ACID], the AC50 in test [1] is more than 30 µM; on D(3) dopamine receptor, more than 30 µM; in test [2], 27.2 µM; in test [3], 13.2 µM; at Estrogen receptor, more than 30 µM.

As for `CC1=C(C/C=C(\C)CCC[C@H](C)CCC[C@H](C)CCCC(C)C)C(=O)c2ccccc2C1=O` [PHYTONADIONE], the half-maximal activity concentration (AC50) (in test [1]; at D(3) dopamine receptor; in test [2]; in test [3]; at Adenosine receptor A3) was more than 30 µM throughout.

With `COc1cccc2c1C(=O)c1c(O)c3c(c(O)c1C2=O)C[C@@](O)(C(=O)CO)C[C@@H]3O[C@H]1C[C@H](N)[C@H](O[C@@H]2CCCCO2)[C@H](C)O1` [PIRARUBICIN], the concentration at half-maximal activity (AC50) in test [1] is more than 30 µM; on D(3) dopamine receptor it was more than 30 µM; in test [2], more than 30 µM; in test [3], more than 10 µM; at Estrogen receptor, more than 30 µM.

As to `CN(C)CCN(Cc1ccccc1)c1ccccn1` [TRIPELENNAMINE], the concentration at half-maximal activity (AC50) on B2 bradykinin receptor is more than 10 µM; in test [1], more than 30 µM; in test [2] it was 2.62 µM; in test [3], more than 30 µM; on Estrogen receptor it was more than 30 µM; at Adenosine receptor A3, more than 30 µM.

Take `Cc1c(C)c2c(c(C)c1O)CCC(C)(COc1ccc(CC3SC(=O)NC3=O)cc1)O2` (stereo unspecified) [TROGLITAZONE]: the AC50 was more than 30 µM at B2 bradykinin receptor; more than 30 µM in test [1]; 6.23 µM on D(3) dopamine receptor; 4.11 µM in test [2]; more than 30 µM on Estrogen receptor; 3.29 µM on Adenosine receptor A3.

As to `Cc1cccc(C)c1NC(=O)c1cc(S(N)(=O)=O)c(Cl)cc1O` [XIPAMIDE], the AC50 (in test [1]; at D(3) dopamine receptor; in test [2]; in test [3]; on Adenosine receptor A3) was more than 30 µM each time.

Usually AC50 stands for the midpoint of the concentration-response curve, whichever way the signal moves. A lower AC50 goes with activity at low concentration.

Values taken from ChEMBL document CHEMBL5291721, “A preclinical secondary pharmacology resource illuminates target-adverse drug reaction associations of marketed drugs” (Nat Commun, 2023).
